Here are results for 28 compounds from patent US8063077B2, “Factor Xa inhibitors” (Millennium Pharmaceuticals, Inc., priority 2006, dated 2011).

In this assay the target is T1, human plasma protein factor Xa (Homo sapiens, UniProt P00742).
T1 construct: The human plasma protein factor Xa was purchased from Haematologic Technologies; purchased Haematologic Technologies (Essex Junction, Vt.); host or cells: human plasma
T1 sequence (P00742 235-488 limits assumed): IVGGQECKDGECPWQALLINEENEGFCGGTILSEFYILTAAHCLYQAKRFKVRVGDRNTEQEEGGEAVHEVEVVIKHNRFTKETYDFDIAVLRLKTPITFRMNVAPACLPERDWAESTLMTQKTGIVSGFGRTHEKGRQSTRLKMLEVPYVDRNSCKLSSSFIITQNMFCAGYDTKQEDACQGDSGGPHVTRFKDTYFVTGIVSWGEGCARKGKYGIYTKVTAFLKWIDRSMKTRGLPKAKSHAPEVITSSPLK
T1 sequence (P00742 41-179 partner limits assumed): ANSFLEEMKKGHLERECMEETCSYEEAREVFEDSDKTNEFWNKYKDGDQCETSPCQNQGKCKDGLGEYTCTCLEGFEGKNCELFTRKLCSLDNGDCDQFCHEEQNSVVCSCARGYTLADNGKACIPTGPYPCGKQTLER
The experiment in a line: Factor Xa IC50 determination, cleavage of paranitroanilide substrate S-2765. The class given is biochemical. Particulars: factor Xa 1 nM, S2765 100 μM, Tris buffered saline pH 7.4, 5% DMSO. The source says: This example illustrates methods for evaluating the compounds of the invention, along with results obtained for such assays. The in vitro and in vivo human Factor Xa activities of the inventive compounds can be determined by various procedures known in the art, such as a test for their ability to inhibit the activity of human plasma Factor Xa. […] The IC50 value is the concentration (in nM) of the compound required to provide 50% inhibition of human Factor Xa proteolytic activity.
An in vitro assay for detecting and measuring inhibition activity against Factor Xa is as follows:
The substrate S-2765 (Z-D-Arg-Gly-Arg-pNA•HCl) was obtained from Diapharma (West Chester, Ohio).
The human plasma protein factor Xa was purchased from Haematologic Technologies (Essex Junction, Vt.).
All assays, which are performed in 96-well microtiter plates, measure proteolytic activity of the enzyme (factor Xa) by following cleavage of a paranitroanilide peptide substrate. The assay buffer used for proteolytic assays was Tris buffered saline (20 mM Tris, 150 mM NaCl, 5 mM CaCl2, 0.1% Bovine serum albumin (BSA), 5% Dimethly Sulfoxide (DMSO) pH 7.4). In a 96-well microtiter plate, inhibitor was serially diluted to give a range of final concentrations from 0.01 nM to 10 μM. Duplicate sets of wells were assayed and control wells without inhibitor were included. Enzyme was added to each well, (factor Xa concentration=1 nM), the plate was shaken for 5 seconds and then incubated for 5 minutes at room temperature. S2765 was added (100 μM final) and the plate was shaken for 5 seconds (final volume in each well was 200 μl). The degree of substrate hydrolysis was measured at 405 nm on a Thermomax plate reader (Molecular Devices, Sunnyvale, Calif.) for 2 minutes. The initial velocities of substrate cleavage (mOD/min), for each range of inhibitor concentrations, were fitted to a four parameter equation using Softmax data analysis software. The parameter C, derived from the resulting curve-fit, corresponded to the concentration for half maximal inhibition (IC50).
Usually IC50 stands for the concentration at which inhibition is half-maximal. `CS(=O)(=O)c1nc(CNC(=O)c2ccc(Cl)s2)cn1-c1ccc(-n2cc(F)ccc2=O)cc1` [Compound 65, 5-chloro-N-((1-(4-(5-fluoro-2-oxopyridin-1(2H)-yl)phenyl)-2-(methylsulfonyl)-1H-imidazol-4-yl)methyl)thiophene-2-carboxamide] had an IC50 of at most 100 nM.

Turning to `COC(=O)c1cc(-n2ccccc2=O)ccc1-n1cnc(CNC(=O)c2ccc(Cl)s2)c1` [Compound 29, 5-Chloro-N-((1-(2-methoxycarbonyl-4-(2-oxopyridin-1(2H)-yl)phenyl)-1H-imidazol-4-yl)methyl)thiophene-2-carboxamide], the IC50 was at least 500 nM.

In turn, `CSc1nc(CNC(=O)c2ccc(Cl)s2)cn1-c1ccc(-n2ccccc2=O)cc1` [Compound 55, 5-chloro-N-((2-(methylthio)-1-(4-(2-oxopyridin-1(2H)-yl)phenyl)-1H-imidazol-4-yl)methyl)thiophene-2-carboxamide] returned an IC50 of at most 100 nM.

For `C[S+]([O-])c1nc(CNC(=O)c2ccc(Cl)s2)cn1-c1ccc(-n2cccc(F)c2=O)cc1` (stereo not shown) [Compound 66, 5-chloro-N-((1-(4-(3-fluoro-2-oxopyridin-1(2H)-yl)phenyl)-2-(methylsulfinyl)-1H-imidazol-4-yl)methyl)thiophene-2-carboxamide], the IC50 is at most 100 nM.

As for `N#C/N=c1\ccccn1-c1ccc(-n2cnc(CNC(=O)c3ccc(Cl)s3)c2)cc1` [Compound 33, (E)-5-chloro-N-((1-(4-(2-(cyanoimino)pyridin-1(2H)-yl)phenyl)-1H-imidazol-4-yl)methyl)thiophene-2-carboxamide], the IC50 was at most 100 nM.

`O=C(NCc1cn(-c2ccc(-n3ccc(=O)[nH]c3=O)cc2)cn1)c1ccc(Cl)s1` [Compound 47, 5-chloro-N-((1-(4-(2,4-dioxo-3,4-dihydropyrimidin-1(2H)-yl)phenyl)-1H-imidazol-4-yl)methyl)thiophene-2-carboxamide] had a concentration for half-maximal inhibition (IC50) of at most 100 nM.

`O=C(NCc1cn(-c2ccc(N3CC[S+]([O-])CC3=O)cc2)cn1)c1ccc(Cl)s1` (stereo not shown) [Compound 17, 5-Chloro-N-((1-(4-(1,3-dioxothiomorpholino)phenyl)-1H-imidazol-4-yl)methyl)thiophene-2-carboxamide] showed an IC50 of 100 to 500 nM.

Compound `O=C(NCc1cn(-c2ccc(-n3ccccc3=O)cc2)cn1)c1ccc2[nH]ccc2c1` [Compound 54, N-((1-(4-(2-oxopyridin-1(2H)-yl)phenyl)-1H-imidazol-4-yl)methyl)-1H-indole-5-carboxamide] registered an IC50 of at least 500 nM.

Compound `CC(=O)/N=c1\ccccn1-c1ccc(-n2cnc(CNC(=O)c3ccc(Cl)s3)c2)cc1` [Compound 36, (E)-N-((1-(4-(2-(acetylimino)pyridin-1(2H)-yl)phenyl)-1H-imidazol-4-yl)methyl)-5-chlorothiophene-2-carboxamide] yielded an IC50 of at most 100 nM.

`Cn1c(=O)ccn(-c2ccc(-n3cnc(CNC(=O)c4ccc(Cl)s4)c3)cc2)c1=O` [Compound 49, 5-chloro-N-((1-(4-(3-methyl-2,4-dioxo-3,4-dihydropyrimidin-1(2H)-yl)phenyl)-1H-imidazol-4-yl)methyl)thiophene-2-carboxamide]: the IC50 is at most 100 nM.

For the compound `Nc1ccn(-c2ccc(-n3cnc(CNC(=O)c4ccc(Cl)s4)c3)cc2)c(=O)n1` [Compound 48, N-((1-(4-(4-amino-2-oxopyrimidin-1(2H)-yl)phenyl)-1H-imidazol-4-yl)methyl)-5-chlorothiophene-2-carboxamide], the IC50 was at most 100 nM.

As for `O=C(NCc1cn(-c2ccc(N3CCS(=O)(=O)CC3=O)cc2)cn1)c1ccc(Cl)s1` [Compound 16, 5-Chloro-N-((1-(4-(1,1-dioxo-3-oxothiomorpholino)phenyl)-1H-imidazol-4-yl)methyl)thiophene-2-carboxamide], the IC50 was at least 500 nM.

In turn, `O=C(NCc1cn(-c2ccc(-n3ccccc3=O)c(F)c2)cn1)c1ccc(Cl)s1` [Compound 40, 5-chloro-N-((1-(3-fluoro-4-(2-oxopyridin-1(2H)-yl)phenyl)-1H-imidazol-4-yl)methyl)thiophene-2-carboxamide] showed an IC50 of at most 100 nM.

`O=C1CN(c2cc(-n3ccccc3=O)ccc2-n2cnc(CNC(=O)c3ccc(Cl)s3)c2)CCN1` [Compound 26, 5-Chloro-N-((1-(2-(3-oxopiperazin-1-yl)-4-(2-oxopyridin-1(2H)-yl)phenyl)-1H-imidazol-4-yl)methyl)thiophene-2-carboxamide]: the IC50 is at most 100 nM.

Consider `Cn1c(Cl)ccc1C(=O)NCc1cn(-c2ccc(-n3ccccc3=O)cc2)cn1` [Compound 38, 5-chloro-1-methyl-N-((1-(4-(2-oxopyridin-1(2H)-yl)phenyl)-1H-imidazol-4-yl)methyl)-1H-pyrrole-2-carboxamide], for which the IC50 is at least 500 nM.

Consider `C[S+]([O-])c1nc(CNC(=O)c2ccc(Cl)s2)cn1-c1ccc(-n2cc(F)ccc2=O)cc1` (stereo not shown) [Compound 64, 5-chloro-N-((1-(4-(5-fluoro-2-oxopyridin-1(2H)-yl)phenyl)-2-(methylsulfinyl)-1H-imidazol-4-yl)methyl)thiophene-2-carboxamide], for which the IC50 is at most 100 nM.

`O=C(NCc1cn(-c2ccc(-n3ccnc(O)c3=O)cc2)cn1)c1ccc(Cl)s1` [Compound 58, 5-chloro-N-((1-(4-(3-hydroxy-2-oxopyrazin-1(2H)-yl)phenyl)-1H-imidazol-4-yl)methyl)thiophene-2-carboxamide] showed an IC50 of at most 100 nM.

As for `COc1cccn(-c2ccc(-n3cnc(CNC(=O)c4ccc(Cl)s4)c3)cc2)c1=O` [Compound 41, 5-chloro-N-((1-(4-(3-methoxy-2-oxopyridin-1(2H)-yl)phenyl)-1H-imidazol-4-yl)methyl)thiophene-2-carboxamide], the half-inhibitory concentration (IC50) is at most 100 nM.

In the case of `O=C(NCc1cn(-c2ccc(N3CCSCC3=O)cc2)cn1)c1ccc(Cl)s1` [Compound 15, 5-Chloro-N-((1-(4-(3-oxothiomorpholino)phenyl)-1H-imidazol-4-yl)methyl)thiophene-2-carboxamide], the IC50 is at most 100 nM.

`O=C(NCc1cn(-c2ccc(N3CCCCC3=O)cc2)cn1)c1ccc(Cl)s1` [Compound 52, 5-chloro-N-((1-(4-(2-oxopiperidin-1-yl)phenyl)-1H-imidazol-4-yl)methyl)thiophene-2-carboxamide]: the IC50 is at most 100 nM.

As to `CS(=O)(=O)c1cc(-n2ccccc2=O)ccc1-n1cnc(CNC(=O)c2ccc(Cl)s2)c1` [Compound 22, 5-Chloro-N-((1-(2-(methylsulfonyl)-4-(2-oxopyridin-1(2H)-yl)phenyl)-1H-imidazol-4-yl)methyl)thiophene-2-carboxamide], the IC50 was at most 100 nM.

`O=C(NCc1cn(-c2ccc(-n3cccc(F)c3=O)cc2)cn1)c1ccc(Cl)s1` [Compound 43, 5-chloro-N-((1-(4-(3-fluoro-2-oxopyridin-1(2H)-yl)phenyl)-1H-imidazol-4-yl)methyl)thiophene-2-carboxamide] returned an IC50 of at most 100 nM.

On to `CC(=O)Nc1ccn(-c2ccc(-n3cnc(CNC(=O)c4ccc(Cl)s4)c3)cc2)c(=O)n1` [Compound 51, N-((1-(4-(4-acetamido-2-oxopyrimidin-1(2H)-yl)phenyl)-1H-imidazol-4-yl)methyl)-5-chlorothiophene-2-carboxamide], for which the IC50 is at most 100 nM.

Consider `O=C(NCc1cn(-c2ccc(-n3ccccc3=O)cc2N2CCS(=O)(=O)CC2)cn1)c1ccc(Cl)s1` [Compound 25, 5-Chloro-N-((1-(4-(2-oxopyridin-1(2H)-yl)-2-(1,1-dioxo-thiomorpholin-4-yl)phenyl)-1H-imidazol-4-yl)methyl)thiophene-2-carboxamide], for which the IC50 was at most 100 nM.

With `Nc1nc(=O)n(-c2ccc(-n3cnc(CNC(=O)c4ccc(Cl)s4)c3)cc2)cc1F` [Compound 50, N-((1-(4-(4-amino-5-fluoro-2-oxopyrimidin-1(2H)-yl)phenyl)-1H-imidazol-4-yl)methyl)-5-chlorothiophene-2-carboxamide], the IC50 was at most 100 nM.

As to `O=C(NCc1cn(-c2ccc(-n3ccncc3=O)cc2)cn1)c1ccc(Cl)s1` [Compound 12, 5-Chloro-N-((1-(4-(2-oxopyrazin-1(2H)-yl)phenyl)-1H-imidazol-4-yl)methyl)thiophene-2-carboxamide], the IC50 is at most 100 nM.

Consider `Cc1cccc(=O)n1-c1ccc(-n2cnc(CNC(=O)c3ccc(Cl)s3)c2)cc1` [Compound 14, 5-chloro-N-((1-(4-(6-methyl-2-oxopyridin-1(2H)-yl)phenyl)-1H-imidazol-4-yl)methyl)thiophene-2-carboxamide], for which the IC50 is at most 100 nM.

Consider `O=C(NCc1cn(-c2ccc(-n3ccccc3=O)cc2O)cn1)c1ccc(Cl)s1` [Compound 28, 5-Chloro-N-((1-(2-hydroxy-4-(2-oxopyridin-1(2H)-yl)phenyl)-1H-imidazol-4-yl)methyl)thiophene-2-carboxamide], for which the IC50 was 100 to 500 nM.
